Reference: US20230079819A1, “COMPOUNDS AND USES THEREOF” (Foghorn Therapeutics Inc., priority 2019, published 2023)

Key:
BRM = biological target: T1, BRM (Homo sapiens, UniProt P51531); experiment: ATPase catalytic activity of BRM, ADP-Glo in vitro biochemical assay; conditions: ATPase catalytic activity, 30 nM BRM, 400 μM ATP, read-out: BRM IP50
T1 construct: made in house; host or cells: High Five insect cells

BRG-1 = biological target: T2, BRG-1 (Homo sapiens, UniProt P51532); experiment: ATPase catalytic activity of BRG-1, ADP-Glo in vitro biochemical assay; conditions: ATPase catalytic activity, 30 nM BRG-1, 400 μM ATP, read-out: BRG1 IP50
T2 construct: made in house; host or cells: High Five insect cells
T2 sequence (P51532 whole entry): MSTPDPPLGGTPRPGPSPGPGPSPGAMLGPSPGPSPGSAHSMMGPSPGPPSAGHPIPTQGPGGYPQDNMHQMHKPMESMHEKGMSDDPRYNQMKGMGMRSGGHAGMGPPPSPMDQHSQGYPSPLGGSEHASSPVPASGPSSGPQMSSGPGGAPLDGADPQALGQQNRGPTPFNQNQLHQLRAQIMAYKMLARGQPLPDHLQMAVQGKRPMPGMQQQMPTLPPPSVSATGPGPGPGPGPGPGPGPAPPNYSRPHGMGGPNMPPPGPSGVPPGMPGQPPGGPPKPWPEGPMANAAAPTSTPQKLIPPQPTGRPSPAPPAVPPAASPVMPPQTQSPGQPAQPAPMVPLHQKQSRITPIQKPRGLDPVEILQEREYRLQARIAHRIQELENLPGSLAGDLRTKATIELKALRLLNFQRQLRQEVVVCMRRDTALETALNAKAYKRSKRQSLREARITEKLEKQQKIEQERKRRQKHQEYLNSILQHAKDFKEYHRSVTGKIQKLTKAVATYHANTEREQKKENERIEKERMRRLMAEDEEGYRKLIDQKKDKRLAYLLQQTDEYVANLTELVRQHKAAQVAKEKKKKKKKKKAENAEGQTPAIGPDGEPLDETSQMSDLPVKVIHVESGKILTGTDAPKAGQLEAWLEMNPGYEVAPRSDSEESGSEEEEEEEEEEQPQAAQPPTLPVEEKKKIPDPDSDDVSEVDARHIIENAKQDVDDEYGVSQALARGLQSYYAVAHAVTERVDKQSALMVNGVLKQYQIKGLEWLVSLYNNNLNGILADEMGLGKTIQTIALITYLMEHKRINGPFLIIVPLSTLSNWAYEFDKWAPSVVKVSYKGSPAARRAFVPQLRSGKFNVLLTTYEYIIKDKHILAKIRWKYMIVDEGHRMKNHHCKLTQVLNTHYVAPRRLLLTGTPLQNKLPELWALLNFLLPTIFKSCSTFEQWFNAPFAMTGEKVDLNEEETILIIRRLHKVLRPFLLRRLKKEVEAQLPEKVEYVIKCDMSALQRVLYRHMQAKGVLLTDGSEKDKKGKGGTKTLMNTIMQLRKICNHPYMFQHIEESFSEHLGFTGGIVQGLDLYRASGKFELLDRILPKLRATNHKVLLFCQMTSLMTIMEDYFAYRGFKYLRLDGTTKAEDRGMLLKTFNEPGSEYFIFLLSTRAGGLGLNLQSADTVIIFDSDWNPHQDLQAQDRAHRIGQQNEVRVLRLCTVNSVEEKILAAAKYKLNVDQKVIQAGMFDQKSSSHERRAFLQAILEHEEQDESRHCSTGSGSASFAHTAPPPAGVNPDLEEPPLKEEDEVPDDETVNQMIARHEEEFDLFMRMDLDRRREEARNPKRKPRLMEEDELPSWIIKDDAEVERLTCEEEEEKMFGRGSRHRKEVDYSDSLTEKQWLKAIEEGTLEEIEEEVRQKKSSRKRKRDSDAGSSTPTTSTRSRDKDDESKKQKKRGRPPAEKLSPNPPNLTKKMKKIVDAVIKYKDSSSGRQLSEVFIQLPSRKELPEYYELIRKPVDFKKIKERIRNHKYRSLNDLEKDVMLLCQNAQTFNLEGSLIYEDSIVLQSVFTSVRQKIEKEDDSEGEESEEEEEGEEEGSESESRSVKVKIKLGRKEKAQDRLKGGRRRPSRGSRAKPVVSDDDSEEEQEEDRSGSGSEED

T1 sequence (P51531 whole entry): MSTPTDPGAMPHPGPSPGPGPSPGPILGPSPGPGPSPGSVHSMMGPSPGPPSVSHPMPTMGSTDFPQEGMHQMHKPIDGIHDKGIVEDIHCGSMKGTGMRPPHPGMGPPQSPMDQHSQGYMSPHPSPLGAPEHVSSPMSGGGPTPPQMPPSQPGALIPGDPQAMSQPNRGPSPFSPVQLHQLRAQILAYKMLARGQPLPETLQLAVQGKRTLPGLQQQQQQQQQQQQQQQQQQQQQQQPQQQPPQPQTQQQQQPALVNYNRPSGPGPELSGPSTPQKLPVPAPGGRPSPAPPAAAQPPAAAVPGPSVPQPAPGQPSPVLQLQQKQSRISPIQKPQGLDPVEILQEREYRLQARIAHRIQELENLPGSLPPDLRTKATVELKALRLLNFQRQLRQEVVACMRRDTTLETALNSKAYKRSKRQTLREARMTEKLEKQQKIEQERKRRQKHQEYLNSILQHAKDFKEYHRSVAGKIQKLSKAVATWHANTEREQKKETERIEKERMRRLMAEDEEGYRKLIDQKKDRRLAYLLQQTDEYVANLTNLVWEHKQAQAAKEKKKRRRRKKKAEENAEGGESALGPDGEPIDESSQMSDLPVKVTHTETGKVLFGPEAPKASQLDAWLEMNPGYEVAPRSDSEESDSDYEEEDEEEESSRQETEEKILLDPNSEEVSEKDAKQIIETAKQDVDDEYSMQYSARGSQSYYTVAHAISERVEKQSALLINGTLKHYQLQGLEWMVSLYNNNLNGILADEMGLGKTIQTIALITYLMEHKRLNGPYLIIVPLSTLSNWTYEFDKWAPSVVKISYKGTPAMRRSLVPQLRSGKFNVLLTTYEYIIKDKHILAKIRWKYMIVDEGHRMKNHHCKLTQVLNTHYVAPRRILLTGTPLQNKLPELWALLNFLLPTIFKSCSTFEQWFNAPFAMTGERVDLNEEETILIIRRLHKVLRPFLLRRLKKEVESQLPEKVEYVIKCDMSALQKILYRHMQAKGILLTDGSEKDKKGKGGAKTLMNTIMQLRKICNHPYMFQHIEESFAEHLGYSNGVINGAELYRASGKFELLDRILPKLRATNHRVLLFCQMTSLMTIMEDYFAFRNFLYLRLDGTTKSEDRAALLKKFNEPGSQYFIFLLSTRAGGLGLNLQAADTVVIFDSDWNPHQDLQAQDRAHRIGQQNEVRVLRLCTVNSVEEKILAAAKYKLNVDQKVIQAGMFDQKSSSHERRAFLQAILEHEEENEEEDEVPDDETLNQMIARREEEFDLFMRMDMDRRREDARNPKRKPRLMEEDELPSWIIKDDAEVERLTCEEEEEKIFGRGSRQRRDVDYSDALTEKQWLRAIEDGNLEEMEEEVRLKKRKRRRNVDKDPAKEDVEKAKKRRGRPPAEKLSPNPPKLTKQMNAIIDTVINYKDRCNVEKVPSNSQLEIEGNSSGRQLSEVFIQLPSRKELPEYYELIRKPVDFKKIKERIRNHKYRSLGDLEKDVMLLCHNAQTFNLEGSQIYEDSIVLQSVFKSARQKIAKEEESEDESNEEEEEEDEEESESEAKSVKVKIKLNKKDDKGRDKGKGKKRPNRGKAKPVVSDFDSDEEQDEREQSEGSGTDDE

SMILES | IC50 (BRM) | IC50 (BRG-1)
CS(=O)(=O)n1ccc(C(=O)NCC(=O)Nc2nc(-c3cccc(C4=CCN(C5COC5)CC4)c3)cs2)c1 [Compound 389] | > 10 nM | > 10 nM
CS(=O)(=O)n1ccc(C(=O)NCC(=O)Nc2nc(-c3cccc([C@H]4CCCCO4)c3)cs2)c1 [Compound 393] | > 10 nM | > 10 nM
CN1CCCc2ccc(-c3csc(NC(=O)CNC(=O)c4ccn(S(C)(=O)=O)c4)n3)nc21 [Compound 394] | > 10 nM | > 10 nM
CC(C)(C)n1ccc(C(=O)NCC(=O)Nc2nc(-c3cccc(C4(O)CC4)n3)cs2)c1 [Compound 395] | > 100 nM | > 100 nM
CC(C)(C)n1ccc(C(=O)NCC(=O)Nc2nc(-c3cccc(N4CCC5(CC4)COC5)c3)cs2)c1 [Compound 397, N-(2-((4-(3-(2-oxa-7-azaspiro[3.5]nonan-7-yl)phenyl)thiazol-2-yl)amino)-2-oxoethyl)-1-(tert-butyl)-1H-pyrrole-3-carboxamide] | > 100 nM | > 100 nM
CS(=O)(=O)n1ccc(C(=O)NCC(=O)Nc2nc(-c3cccc(C4CCOCC4)c3)cs2)c1 [Compound 399] | > 10 nM | > 10 nM
Cc1ccc(Cl)c(-c2cc(-c3csc(NC(=O)CNC(=O)c4ccn(S(C)(=O)=O)c4)n3)ccc2C)n1 [Compound 401, N-(2-((4-(3-(3-chloro-6-methylpyridin-2-yl)-4-methylphenyl)thiazol-2-yl)amino)-2-oxoethyl)-1-(methylsulfonyl)-1H-pyrrole-3-carboxamide] | > 100 nM | > 100 nM
CCS(=O)(=O)n1ccc(C(=O)NCC(=O)Nc2nc(-c3cccc(-c4cnn(C)n4)c3)cs2)c1 [Compound 403] | > 10 nM | > 10 nM
CC1(C)C=C(c2cccc(-c3csc(NC(=O)CNC(=O)c4ccn(S(C)(=O)=O)c4)n3)c2)CC(C)(C)O1 [Compound 411] | > 10 nM | > 10 nM
CC(C)(C)n1ccc(C(=O)NCC(=O)Nc2nc(-c3cccc(-c4cc5n(n4)CCOC5)c3)cs2)c1 [Compound 415] | > 10 nM | > 10 nM
CN(C)C(=O)C(C)(C)n1ccc(-c2cccc(-c3csc(NC(=O)CNC(=O)c4ccn(S(C)(=O)=O)c4)n3)c2)n1 [Compound 418] | > 10 nM | > 10 nM
CS(=O)(=O)n1ccc(C(=O)NCC(=O)Nc2nc(-c3cccc([C@@H]4CCCOC4)c3)cs2)c1 [Compound 419, 1-methylsulfonyl-N-[2-oxo-2-[[4-[3-[(3S)-tetrahydropyran-3-yl]phenyl]thiazol-2-yl]amino]ethyl]pyrrole-3-carboxamide] | > 10 nM | > 100 nM
CS(=O)(=O)n1ccc(C(=O)NCC(=O)Nc2nc(-c3cccc([C@H]4CCCOC4)c3)cs2)c1 [Compound 420, 1-methylsulfonyl-N-[2-oxo-2-[[4-[3-[(3R)-tetrahydropyran-3-yl]phenyl]thiazol-2-yl]amino]ethyl]pyrrole-3-carboxamide] | > 10 nM | > 10 nM
CS(=O)(=O)n1ccc(C(=O)NCC(=O)Nc2nc(-c3cccc(-c4ccnc(CC(=O)O)c4)c3)cs2)c1 [Compound 421, Sodium 2-(4-(3-(2-(2-(1-(methylsulfonyl)-1H-pyrrole-3-carboxamido)acetamido)thiazol-4-yl)phenyl)pyridin-2-yl)acetate] | > 10 nM | > 10 nM
Cc1cc(-c2cccc(-c3csc(NC(=O)CNC(=O)c4ccn(C(C)(C)C)c4)n3)c2)no1 [Compound 425] | > 10 nM | > 10 nM
CC(C)(O)C#Cc1cccc(-c2csc(NC(=O)CNC(=O)c3ccn(S(C)(=O)=O)c3)n2)c1 [Compound 426] | > 10 nM | > 10 nM
COCC1CN(c2cccc(-c3csc(NC(=O)CNC(=O)c4ccn(S(C)(=O)=O)c4)n3)c2)C1 [Compound 427] | > 10 nM | > 10 nM
CC(C)(C)n1ccc(C(=O)NCC(=O)Nc2nc(-c3cccc(C4CCCCO4)c3)cs2)c1 (stereo not shown) [Compound 432] | > 10 nM | > 10 nM
CN1CCn2nc(-c3cccc(-c4csc(NC(=O)CNC(=O)c5ccn(S(C)(=O)=O)c5)n4)c3)cc2C1=O [Compound 433] | > 10 nM | > 10 nM
CC(C)(N)Cn1ccc(-c2cccc(-c3csc(NC(=O)CNC(=O)c4ccn(C(C)(C)C)c4)n3)c2)n1 [Compound 434] | > 10 nM | > 10 nM
COC[C@H](NC(=O)c1ccn(S(C)(=O)=O)c1)C(=O)Nc1nc(-c2cccc(-c3cc(C)no3)c2)cs1 [Compound 436] | > 10 nM | > 10 nM
CN1CCn2nc(-c3cccc(-c4csc(NC(=O)CNC(=O)c5ccn(C(C)(C)C)c5)n4)c3)cc2C1=O [Compound 437] | > 100 nM | > 100 nM
CC(C)(C)n1ccc(C(=O)NCC(=O)Nc2nc(-c3cccc(N4CCN(C5COC5)CC4)n3)cs2)c1 [Compound 440] | > 10 nM | > 10 nM

The next lines start with the values.

IC50 (BRM) | IC50 (BRG-1) | SMILES
< 10 nM | < 10 nM | CS(=O)(=O)n1ccc(C(=O)NCC(=O)Nc2nc(-c3cccc([C@H]4CC[C@H](O)CC4)c3)cs2)c1 [Compound 386, N-(2-((4-(3-((trans)-4-hydroxycyclohexyl)phenyl)thiazol-2-yl)amino)-2-oxoethyl)-1-(methylsulfonyl)-1H-pyrrole-3-carboxamide]
> 10 nM | > 10 nM | CS(=O)(=O)n1ccc(C(=O)NCC(=O)Nc2nc(-c3cccc([C@H]4CC[C@@H](O)CC4)c3)cs2)c1 [Compound 387, N-(2-((4-(3-((cis)-4-hydroxycyclohexyl)phenyl)thiazol-2-yl)amino)-2-oxoethyl)-1-(methylsulfonyl)-1H-pyrrole-3-carboxamide]
> 10 nM | > 100 nM | CC1(C)CC(c2cccc(-c3csc(NC(=O)CNC(=O)c4ccn(S(C)(=O)=O)c4)n3)c2)CC(C)(C)O1 [Compound 388]
< 10 nM | > 10 nM | CS(=O)(=O)n1ccc(C(=O)NCC(=O)Nc2nc(-c3cccc(C4=CCCOC4)c3)cs2)c1 [Compound 396, N-[2-[[4-[3-(3,6-dihydro-2H-pyran-5-yl)phenyl]thiazol-2-yl]amino]-2-oxo-ethyl]-1-methylsulfonyl-pyrrole-3-carboxamide]
< 10 nM | < 10 nM | CS(=O)(=O)n1ccc(C(=O)NCC(=O)Nc2nc(-c3cccc(C4=CCOCC4)c3)cs2)c1 [Compound 400]
< 10 nM | > 10 nM | Cc1cc(-c2cccc(-c3csc(NC(=O)CNC(=O)c4ccn(C(C)(C)C)c4)n3)c2)cnn1 [Compound 402]
< 10 nM | > 10 nM | CS(=O)(=O)n1ccc(C(=O)NCC(=O)Nc2nc(-c3cccc(-c4cc5n(n4)CCOC5)c3)cs2)c1 [Compound 404]
< 10 nM | < 10 nM | Cc1cc(C)nc(-c2cccc(-c3csc(NC(=O)CNC(=O)c4ccn(S(C)(=O)=O)c4)n3)c2)n1 [Compound 405]
< 10 nM | < 10 nM | Cc1cc(C)nc(-c2cccc(-c3csc(NC(=O)CNC(=O)c4ccn(S(C)(=O)=O)c4)n3)c2)c1 [Compound 406]
< 10 nM | < 10 nM | Cc1cccc(-c2cccc(-c3csc(NC(=O)CNC(=O)c4ccn(S(C)(=O)=O)c4)n3)c2)n1 [Compound 407]
< 10 nM | < 10 nM | CS(=O)(=O)n1ccc(C(=O)NCC(=O)Nc2nc(-c3cccc(-c4ccnc(N5CCC5)n4)c3)cs2)c1 [Compound 408, N-[2-[[4-[3-[2-(azetidin-1-yl)pyrimidin-4-yl]phenyl]thiazol-2-yl]amino]-2-oxo-ethyl]-1-methylsulfonyl-pyrrole-3-carboxamide]
< 10 nM | < 10 nM | CS(=O)(=O)n1ccc(C(=O)NCC(=O)Nc2nc(-c3cccc(-c4ccnc(C5CC5)n4)c3)cs2)c1 [Compound 409]
< 10 nM | < 10 nM | CS(=O)(=O)n1ccc(C(=O)NCC(=O)Nc2nc(-c3cccc(-c4ccnc(Cl)n4)c3)cs2)c1 [Compound 410]
< 10 nM | < 10 nM | Cc1cc(-c2cccc(-c3csc(NC(=O)CNC(=O)c4ccn(S(C)(=O)=O)c4)n3)c2)nc(C)n1 [Compound 412]
< 10 nM | < 10 nM | Cc1cc(-c2cccc(-c3csc(NC(=O)CNC(=O)c4ccn(S(C)(=O)=O)c4)n3)c2)c(F)cn1 [Compound 413]
< 10 nM | < 10 nM | CNC(=O)C(C)(C)n1ccc(-c2cccc(-c3csc(NC(=O)CNC(=O)c4ccn(S(C)(=O)=O)c4)n3)c2)n1 [Compound 414, N-[2-[[4-[3-[1-[1,1-dimethyl-2-(methylamino)-2-oxo-ethyl]pyrazol-3-yl]phenyl]thiazol-2-yl]amino]-2-oxo-ethyl]-1-methylsulfonyl-pyrrole-3-carboxamide]
< 10 nM | < 10 nM | Cc1nccc(-c2cccc(-c3csc(NC(=O)CNC(=O)c4ccn(S(C)(=O)=O)c4)n3)c2)n1 [Compound 416]
< 10 nM | > 10 nM | Cc1cccc(-c2cccc(-c3csc(NC(=O)CNC(=O)c4ccn(C(C)(C)C)c4)n3)c2)n1 [Compound 417]
< 10 nM | < 10 nM | C[C@@H]1CN(c2cccc(-c3csc(NC(=O)CNC(=O)c4ccn(S(C)(=O)=O)c4)n3)c2)CC[C@H]1O [Compound 423]
< 10 nM | < 10 nM | COC[C@H](NC(=O)c1ccn(S(C)(=O)=O)c1)C(=O)Nc1nc(-c2ccc3ccn(C)c(=O)c3c2)cs1 [Compound 430]
< 10 nM | < 10 nM | CNC(=O)C1(c2cc(-c3cccc(-c4csc(NC(=O)CNC(=O)c5ccn(S(C)(=O)=O)c5)n4)c3)ccn2)CC1 [Compound 435]
< 10 nM | < 10 nM | COC[C@H](NC(=O)c1ccn(S(C)(=O)=O)c1)C(=O)Nc1nc(-c2cccc(-c3ccnc(Cl)c3)c2)cs1 [Compound 438]
< 10 nM | < 10 nM | CN(C)C(=O)C1(c2cc(-c3cccc(-c4csc(NC(=O)CNC(=O)c5ccn(S(C)(=O)=O)c5)n4)c3)ccn2)CC1 [Compound 439]
< 10 nM | < 10 nM | CC(=O)NCCOc1cc(-c2cccc(-c3csc(NC(=O)CNC(=O)c4ccn(S(C)(=O)=O)c4)n3)c2)ccn1 [Compound 441]
